The source of these data is US20050214378A1, “Stealth lipid nanocapsules, methods for the preparation thereof and use thereof as a carrier for active principle(s)” (ETHYPHARM, priority 2002, published 2005).

This data set in a line: Solubility of paclitaxel and docetaxel in triglycerides. The data set is classed as physicochemical. As to conditions: no recrystallization at room temperature; for Solubility in Labrafac CC: triglyceride Labrafac CC, C8 content 56.7%; for Solubility in Miglyol 810 N: triglyceride Miglyol 810 N, C8 content 70.4%; for Solubility in Tricaprylin: triglyceride Tricaprylin, C8 >99%. As to the method:
A solution of docetaxel or paclitaxel in triglycerides, which will constitute the inner core of the lipid nanocapsules, is prepared by dissolving the drug into the triglyceride at 75° C. The amount of drug is adjusted in order to obtain solutions that will not recrystallize upon cooling to room temperature.

SMILES strings stand for the structures.

For the molecule `CC(=O)O[C@H]1C(=O)[C@@]2(C)[C@H]([C@H](OC(=O)c3ccccc3)[C@]3(O)C[C@H](OC(=O)[C@H](O)[C@@H](NC(=O)c4ccccc4)c4ccccc4)C(C)=C1C3(C)C)[C@]1(OC(C)=O)CO[C@@H]1C[C@@H]2O` [Paclitaxel, paclitaxel], the “Solubility in Labrafac CC” value was found to be 1.6 % w/w, the “Solubility in Miglyol 810 N” value was 2.7 % w/w and the “Solubility in Tricaprylin” value is on record as 6 % w/w.
The matching figures for `CC(=O)O[C@@]12CO[C@@H]1C[C@H](O)[C@@]1(C)C(=O)[C@H](O)C3=C(C)[C@@H](OC(=O)[C@H](O)[C@@H](NC(=O)OC(C)(C)C)c4ccccc4)C[C@@](O)([C@@H](OC(=O)c4ccccc4)[C@H]21)C3(C)C` [Docetaxel, docetaxel]: 2 % w/w, 3.9 % w/w and 7 % w/w.
